# Tests used:
# Assay in all cases: relative viability (nuclei count vs DMSO), 5 days (fraction); higher = more cells survive
# [1] = compound: CC1=CC(=CC=C1)NC2=NC(=CS2)C3=CC=NC=C3 + O=C(c1cc(Cc2n[nH]c(=O)c3ccccc23)ccc1F)N1CCN(C(=O)C2CC2)CC1 [Olaparib] (partner 8 µM)
# Summary of the method: (§1)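 For relative viability, nuclei counts in treated wells were divided by those in vehicle wells. Lung cancer cell lines had been pin-tool dosed in 1536-well plates the day after seeding and cultured for 5 days, then fixed and stained in one step (final 0.05% Triton X-100, 1% formaldehyde, 1 ug/ml Hoechst) and imaged at 4×. Doses were one drug alone or a fixed anchor-drug dose plus five library-drug doses (not always all listed) in √10 steps, and values are duplicate-plate medians.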
# Masitinib + Vorinostat = compound: Cc1ccc(NC(=O)c2ccc(CN3CCN(C)CC3)cc2)cc1Nc1nc(-c2cccnc2)cs1 [Masitinib] + O=C(CCCCCCC(=O)Nc1ccccc1)NO [Vorinostat] (partner 1 µM)
# Summary of the method: as §1
# Masitinib + Pictilisib = compound: Cc1ccc(NC(=O)c2ccc(CN3CCN(C)CC3)cc2)cc1Nc1nc(-c2cccnc2)cs1 [Masitinib] + CS(=O)(=O)N1CCN(Cc2cc3nc(-c4cccc5[nH]ncc45)nc(N4CCOCC4)c3s2)CC1 [Pictilisib] (partner 1 µM)
# Summary of the method: as §1
# [2] = compound: CC1=CC(=CC=C1)NC2=NC(=CS2)C3=CC=NC=C3 + Nc1nc2[nH]cc(CCc3ccc(C(=O)N[C@@H](CCC(=O)O)C(=O)O)cc3)c2c(=O)[nH]1 [Pemetrexed] (partner 0.2 µM)
# Summary of the method: as §1
cell line,measurement,setting,value
IA-LM,relative viability,[1]; first compound 0.08 µM,0.8
same,relative viability,[1]; first compound 0.253 µM,0.779
same,relative viability,[1]; first compound 0.8 µM,0.605
same,relative viability,[1]; first compound 2.53 µM,0.475
same,relative viability,[1]; first compound 8 µM,0.714
same,relative viability,Masitinib + Vorinostat; first compound 0.01 µM,0.737
same,relative viability,Masitinib + Vorinostat; first compound 0.03162 µM,0.747
same,relative viability,Masitinib + Vorinostat; first compound 0.1 µM,1.06
same,relative viability,Masitinib + Vorinostat; first compound 0.3162 µM,1.19
same,relative viability,Masitinib + Vorinostat; first compound 1 µM,0.957
same,relative viability,Masitinib + Pictilisib; first compound 0.01 µM,0.291
same,relative viability,Masitinib + Pictilisib; first compound 0.03162 µM,0.415
same,relative viability,Masitinib + Pictilisib; first compound 0.1 µM,0.353
same,relative viability,Masitinib + Pictilisib; first compound 0.3162 µM,0.455
same,relative viability,Masitinib + Pictilisib; first compound 1 µM,0.418
LC-2-ad,relative viability,[1]; first compound 0.08 µM,0.661
same,relative viability,[1]; first compound 0.253 µM,0.693
same,relative viability,[1]; first compound 0.8 µM,0.657
same,relative viability,[1]; first compound 2.53 µM,0.627
same,relative viability,[1]; first compound 8 µM,0.616
same,relative viability,[2]; first compound 0.08 µM,0.269
same,relative viability,[2]; first compound 0.253 µM,0.281
same,relative viability,[2]; first compound 0.8 µM,0.308
same,relative viability,[2]; first compound 2.53 µM,0.258
same,relative viability,[2]; first compound 8 µM,0.276
same,relative viability,Masitinib + Vorinostat; first compound 0.01 µM,0.546
same,relative viability,Masitinib + Vorinostat; first compound 0.03162 µM,0.666
same,relative viability,Masitinib + Vorinostat; first compound 0.1 µM,0.584
same,relative viability,Masitinib + Vorinostat; first compound 0.3162 µM,0.694
same,relative viability,Masitinib + Vorinostat; first compound 1 µM,0.718
same,relative viability,Masitinib + Pictilisib; first compound 0.01 µM,0.435
same,relative viability,Masitinib + Pictilisib; first compound 0.03162 µM,0.46
same,relative viability,Masitinib + Pictilisib; first compound 0.1 µM,0.467
same,relative viability,Masitinib + Pictilisib; first compound 0.3162 µM,0.409
same,relative viability,Masitinib + Pictilisib; first compound 1 µM,0.412
LCLC-97TM1,relative viability,[1]; first compound 0.08 µM,0.419
same,relative viability,[1]; first compound 0.253 µM,0.304
same,relative viability,[1]; first compound 0.8 µM,0.343
same,relative viability,[1]; first compound 2.53 µM,0.411
same,relative viability,[1]; first compound 8 µM,0.379
same,relative viability,[2]; first compound 0.08 µM,0.168
same,relative viability,[2]; first compound 0.253 µM,0.161
same,relative viability,[2]; first compound 0.8 µM,0.19
same,relative viability,[2]; first compound 2.53 µM,0.168
same,relative viability,[2]; first compound 8 µM,0.182
same,relative viability,Masitinib + Vorinostat; first compound 0.01 µM,0.534
same,relative viability,Masitinib + Vorinostat; first compound 0.03162 µM,0.778
same,relative viability,Masitinib + Vorinostat; first compound 0.1 µM,0.472
same,relative viability,Masitinib + Vorinostat; first compound 0.3162 µM,0.887
same,relative viability,Masitinib + Vorinostat; first compound 1 µM,0.712
same,relative viability,Masitinib + Pictilisib; first compound 0.01 µM,0.156
same,relative viability,Masitinib + Pictilisib; first compound 0.03162 µM,0.172
same,relative viability,Masitinib + Pictilisib; first compound 0.1 µM,0.287
same,relative viability,Masitinib + Pictilisib; first compound 0.3162 µM,0.218
same,relative viability,Masitinib + Pictilisib; first compound 1 µM,0.2
LCLC-103H,relative viability,[1]; first compound 0.08 µM,0.631
same,relative viability,[1]; first compound 0.253 µM,0.725
same,relative viability,[1]; first compound 0.8 µM,0.704
same,relative viability,[1]; first compound 2.53 µM,0.748
same,relative viability,[1]; first compound 8 µM,0.546
same,relative viability,[2]; first compound 0.08 µM,0.415
same,relative viability,[2]; first compound 0.253 µM,0.434
same,relative viability,[2]; first compound 0.8 µM,0.45
same,relative viability,[2]; first compound 2.53 µM,0.46
same,relative viability,[2]; first compound 8 µM,0.488
same,relative viability,Masitinib + Vorinostat; first compound 0.03162 µM,0.778
same,relative viability,Masitinib + Vorinostat; first compound 0.1 µM,0.666
same,relative viability,Masitinib + Vorinostat; first compound 0.3162 µM,0.778
same,relative viability,Masitinib + Vorinostat; first compound 1 µM,0.761
same,relative viability,Masitinib + Pictilisib; first compound 0.01 µM,0.557
same,relative viability,Masitinib + Pictilisib; first compound 0.03162 µM,0.621
same,relative viability,Masitinib + Pictilisib; first compound 0.1 µM,0.596
same,relative viability,Masitinib + Pictilisib; first compound 0.3162 µM,0.583
same,relative viability,Masitinib + Pictilisib; first compound 1 µM,0.543
LK-2,relative viability,[1]; first compound 0.08 µM,0.665
same,relative viability,[1]; first compound 0.253 µM,0.762
same,relative viability,[1]; first compound 0.8 µM,0.903
same,relative viability,[1]; first compound 2.53 µM,0.824
same,relative viability,[1]; first compound 8 µM,1.09
same,relative viability,[2]; first compound 0.253 µM,0.315
same,relative viability,[2]; first compound 0.8 µM,0.263
same,relative viability,[2]; first compound 2.53 µM,0.135
same,relative viability,[2]; first compound 8 µM,0.347
same,relative viability,Masitinib + Vorinostat; first compound 0.01 µM,0.246
same,relative viability,Masitinib + Vorinostat; first compound 0.03162 µM,0.265
same,relative viability,Masitinib + Vorinostat; first compound 0.1 µM,0.393
same,relative viability,Masitinib + Vorinostat; first compound 0.3162 µM,0.225
same,relative viability,Masitinib + Vorinostat; first compound 1 µM,0.369
same,relative viability,Masitinib + Pictilisib; first compound 0.01 µM,0.595
same,relative viability,Masitinib + Pictilisib; first compound 0.03162 µM,0.656
same,relative viability,Masitinib + Pictilisib; first compound 0.1 µM,0.671
same,relative viability,Masitinib + Pictilisib; first compound 0.3162 µM,0.569
same,relative viability,Masitinib + Pictilisib; first compound 1 µM,0.641

# — the supplement of paper PMC10307832
